SMILES strings stand for the structures. pKi: −log10 of the molar value. Where only a bound is given, the exact number is not on record here.

For one assay, the target named is T1, STAT6 protein (Homo sapiens, UniProt P42226).
T1 sequence (P42226 1-847): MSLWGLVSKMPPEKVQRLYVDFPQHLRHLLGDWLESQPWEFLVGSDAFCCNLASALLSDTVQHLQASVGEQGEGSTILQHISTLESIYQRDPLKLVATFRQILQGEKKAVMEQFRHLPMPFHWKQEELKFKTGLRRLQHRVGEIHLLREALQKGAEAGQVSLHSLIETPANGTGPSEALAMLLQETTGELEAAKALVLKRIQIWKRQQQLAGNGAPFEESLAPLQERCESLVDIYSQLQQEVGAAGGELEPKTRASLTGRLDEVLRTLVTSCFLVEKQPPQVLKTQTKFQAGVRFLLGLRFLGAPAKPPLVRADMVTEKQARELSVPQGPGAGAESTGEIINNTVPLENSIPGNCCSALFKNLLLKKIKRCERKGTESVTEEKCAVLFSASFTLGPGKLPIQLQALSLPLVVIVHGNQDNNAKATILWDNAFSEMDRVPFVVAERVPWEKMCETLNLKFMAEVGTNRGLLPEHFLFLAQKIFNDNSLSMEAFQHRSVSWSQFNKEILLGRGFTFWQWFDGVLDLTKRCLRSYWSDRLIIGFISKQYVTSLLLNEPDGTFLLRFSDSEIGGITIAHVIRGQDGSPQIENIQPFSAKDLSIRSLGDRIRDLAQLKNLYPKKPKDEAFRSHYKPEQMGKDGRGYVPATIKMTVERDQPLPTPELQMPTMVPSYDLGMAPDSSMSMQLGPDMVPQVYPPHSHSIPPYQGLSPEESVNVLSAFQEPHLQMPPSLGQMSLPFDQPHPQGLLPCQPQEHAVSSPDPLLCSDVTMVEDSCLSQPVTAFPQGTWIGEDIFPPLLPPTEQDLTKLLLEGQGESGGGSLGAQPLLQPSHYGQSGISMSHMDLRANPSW
Nature of the assay: Fluorescence polarization (FP) binding assay, STAT6. To be noted: FP competition, 5 nM fluorescein-labeled tracer, 200 nM protein, PBS pH7.4; read-out: Binding STAT6. The essentials: (§1)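 Fluorescein-labelled tracer (5 nM) with 200 nM STAT5 and/or STAT6 protein in PBS pH 7.4, 0.01% BGG, 0.01% Tween-20, 2 mM DTT. Mixed 15 min, then equilibrated 1 h at room temperature; read by fluorescence polarization, constants from nonlinear curve fitting.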

The target of the next assay is T2, STAT5A (Homo sapiens, UniProt P42229).
T2 sequence (P42229 1-794): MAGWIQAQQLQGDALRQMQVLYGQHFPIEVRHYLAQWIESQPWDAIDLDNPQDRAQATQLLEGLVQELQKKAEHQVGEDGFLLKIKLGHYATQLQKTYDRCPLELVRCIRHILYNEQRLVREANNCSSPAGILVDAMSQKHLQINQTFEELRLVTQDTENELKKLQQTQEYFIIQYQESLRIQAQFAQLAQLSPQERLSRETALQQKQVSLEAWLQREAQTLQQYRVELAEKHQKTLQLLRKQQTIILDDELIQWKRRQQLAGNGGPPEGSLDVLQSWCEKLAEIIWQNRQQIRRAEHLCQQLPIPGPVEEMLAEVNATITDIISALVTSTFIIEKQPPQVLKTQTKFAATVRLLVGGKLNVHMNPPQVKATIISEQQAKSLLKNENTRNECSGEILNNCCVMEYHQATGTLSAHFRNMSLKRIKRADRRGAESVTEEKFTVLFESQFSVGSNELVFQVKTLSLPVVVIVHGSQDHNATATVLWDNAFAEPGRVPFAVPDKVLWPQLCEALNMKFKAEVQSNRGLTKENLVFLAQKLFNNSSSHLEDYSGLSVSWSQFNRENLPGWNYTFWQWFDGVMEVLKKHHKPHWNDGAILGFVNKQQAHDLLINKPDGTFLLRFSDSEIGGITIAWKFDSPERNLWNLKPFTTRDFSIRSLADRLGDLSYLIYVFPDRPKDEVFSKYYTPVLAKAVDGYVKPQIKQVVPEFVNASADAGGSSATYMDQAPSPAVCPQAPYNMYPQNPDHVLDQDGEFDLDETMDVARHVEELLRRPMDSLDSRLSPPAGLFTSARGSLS
In words: Fluorescence polarization (FP) binding assay, STAT5A. To be noted: FP competition, 5 nM fluorescein-labeled tracer, 200 nM protein, PBS pH7.4. The gist of the method:
as §1

For the molecule `CC(C)(C)[C@H](NC(=O)c1cc2cc(C(F)(F)P(=O)(O)O)ccc2s1)C(=O)N1CCC[C@H]1C(=O)N1CCN(S(C)(=O)=O)[C@H](c2ccccc2)C1` [Compound 168, ((2-(((S)-3,3-dimethyl-1-((S)-2-((R)-4-(methylsulfonyl)-3-phenylpiperazine-1-carbonyl)pyrrolidin-1-yl)-1-oxobutan-2-yl)carbamoyl)benzo[b]thiophen-5-yl)difluoromethyl)phosphonic acid], the pKi at STAT6 protein was 5.00 to 6.00; on STAT5A, less than 5.00.

For the molecule `CC(C)(C)[C@H](NC(=O)c1cc2cc(C(F)(F)P(=O)(O)O)ccc2s1)C(=O)N1CCC[C@H]1C(=O)N1CCN(S(C)(=O)=O)[C@@H](c2ccccc2)C1` [Compound 169, ((2-(((S)-3,3-dimethyl-1-((S)-2-((S)-4-(methylsulfonyl)-3-phenylpiperazine-1-carbonyl)pyrrolidin-1-yl)-1-oxobutan-2-yl)carbamoyl)benzo[b]thiophen-5-yl)difluoromethyl)phosphonic acid], the values for the pKi on STAT6 protein and at STAT5A were 5.00 to 6.00 and less than 5.00, respectively.

As for `CC(=O)N1CCN(C(=O)[C@@H](NC(=O)c2cc3cc(C(F)(F)P(=O)(O)O)ccc3s2)C(C)(C)C)[C@H](C(=O)N2CCO[C@H](c3ccccc3)C2)C1` [Compound 170, ((2-(((S)-1-((S)-4-acetyl-2-((R)-2-phenylmorpholine-4-carbonyl)piperazin-1-yl)-3,3-dimethyl-1-oxobutan-2-yl)carbamoyl)benzo[b]thiophen-5-yl)difluoromethyl)phosphonic acid], the pKi at STAT6 protein is 6.00 to 7.00; on STAT5A it was 5.00 to 6.00.

In the case of `CC(=O)N1CCN(C(=O)[C@@H](NC(=O)c2cc3cc(C(F)(F)P(=O)(O)O)ccc3s2)C(C)(C)C)[C@H](C(=O)N2CCO[C@@H](c3ccccc3)C2)C1` [Compound 171, ((2-(((S)-1-((S)-4-acetyl-2-((S)-2-phenylmorpholine-4-carbonyl)piperazin-1-yl)-3,3-dimethyl-1-oxobutan-2-yl)carbamoyl)benzo[b]thiophen-5-yl)difluoromethyl)phosphonic acid], the values for the pKi at STAT6 protein and at STAT5A were 5.00 to 6.00 and less than 5.00, respectively.

`CC(=O)N1CCN(C(=O)[C@@H](NC(=O)c2cc3cc(C(F)(F)P(=O)(O)O)ccc3s2)C(C)(C)C)[C@H](C(=O)N2CCC[C@H](c3ccccc3)C2)C1` [Compound 175, ((2-(((S)-1-((S)-4-acetyl-2-((R)-3-phenylpiperidine-1-carbonyl)piperazin-1-yl)-3,3-dimethyl-1-oxobutan-2-yl)carbamoyl)benzo[b]thiophen-5-yl)difluoromethyl)phosphonic acid]: the pKi on STAT6 protein is 6.00 to 7.00; at STAT5A it was 5.00 to 6.00.

Consider `CC(=O)N1CCN(C(=O)[C@@H](NC(=O)c2cc3cc(C(F)(F)P(=O)(O)O)ccc3s2)C(C)(C)C)[C@H](C(=O)N2CC[C@H](c3ccccc3)C2)C1` [Compound 176, ((2-(((S)-1-((S)-4-acetyl-2-((R)-3-phenylpyrrolidine-1-carbonyl)piperazin-1-yl)-3,3-dimethyl-1-oxobutan-2-yl)carbamoyl)benzo[b]thiophen-5-yl)difluoromethyl)phosphonic acid], for which the pKi at STAT6 protein and on STAT5A was 5.00 to 6.00 in each case.

Turning to `CC(=O)N1CCN(C(=O)[C@@H](NC(=O)c2cc3cc(C(F)(F)P(=O)(O)O)ccc3s2)C(C)(C)C)[C@H](C(=O)N2CC[C@@H](c3ccccc3)C2)C1` [Compound 177, ((2-(((S)-1-((S)-4-acetyl-2-((S)-3-phenylpyrrolidine-1-carbonyl)piperazin-1-yl)-3,3-dimethyl-1-oxobutan-2-yl)carbamoyl)benzo[b]thiophen-5-yl)difluoromethyl)phosphonic acid], the results for the pKi at STAT6 protein and at STAT5A were 5.00 to 6.00 and less than 5.00, respectively.

With `CC(=O)N1CC[C@H]2CC[C@@H](C(=O)N3CCS(=O)(=O)C(c4ccccc4)C3)N2C(=O)[C@@H](NC(=O)c2cc3cc(C(F)(F)P(=O)(O)O)ccc3s2)C1` (stereo partly drawn) [Compound 178, ((2-(((5S,8S,10aR)-3-acetyl-8-(1,1-dioxido-2-phenylthiomorpholine-4-carbonyl)-6-oxodecahydropyrrolo[1,2-a][1,5]diazocin-5-yl)carbamoyl)benzo[b]thiophen-5-yl)difluoromethyl)phosphonic acid], the pKi on STAT6 protein is 6.00 to 7.00; on STAT5A it was 5.00 to 6.00.

`CC(C)(C)[C@H](NC(=O)c1cc2cc(C(F)(F)P(=O)(O)O)ccc2s1)C(=O)N1CCCC[C@H]1C(=O)N1CCO[C@H](c2ccccc2)C1` [Compound 179, ((2-(((S)-3,3-dimethyl-1-oxo-1-((S)-2-((R)-2-phenylmorpholine-4-carbonyl)piperidin-1-yl)butan-2-yl)carbamoyl)benzo[b]thiophen-5-yl)difluoromethyl)phosphonic acid]: the pKi at STAT6 protein was 6.00 to 7.00; at STAT5A, 5.00 to 6.00.

Consider `CC(C)(C)[C@H](NC(=O)c1cc2cc(C(F)(F)P(=O)(O)O)ccc2s1)C(=O)N1CCCC[C@H]1C(=O)N1CCC[C@H](c2ccccc2)C1` [Compound 180, ((2-(((S)-3,3-dimethyl-1-oxo-1-((S)-2-((R)-3-phenylpiperidine-1-carbonyl)piperidin-1-yl)butan-2-yl)carbamoyl)benzo[b]thiophen-5-yl)difluoromethyl)phosphonic acid], for which the pKi on STAT6 protein was 6.00 to 7.00; at STAT5A, 5.00 to 6.00.

As for `CC(C)(C)[C@H](NC(=O)c1cc2cc(C(F)(F)P(=O)(O)O)ccc2s1)C(=O)N1CCCC[C@H]1C(=O)N1Cc2ccccc2C1` [Compound 181, (difluoro(2-(((S)-1-((S)-2-(isoindoline-2-carbonyl)piperidin-1-yl)-3,3-dimethyl-1-oxobutan-2-yl)carbamoyl)benzo[b]thiophen-5-yl)methyl)phosphonic acid], the pKi at STAT6 protein and at STAT5A was less than 5.00 each time.

Regarding `CC(C)(C)[C@H](NC(=O)c1cc2cc(C(F)(F)P(=O)(O)O)ccc2s1)C(=O)N1CCCC[C@H]1C(=O)Nc1ncc(-c2ccccc2)s1` [Compound 182, ((2-(((S)-3,3-dimethyl-1-oxo-1-((S)-2-((5-phenylthiazol-2-yl)carbamoyl)piperidin-1-yl)butan-2-yl)carbamoyl)benzo[b]thiophen-5-yl)difluoromethyl)phosphonic acid], the results for the pKi at STAT6 protein and on STAT5A were 5.00 to 6.00 and 6.00 to 7.00, respectively.

As for `CC(C)(C)[C@H](NC(=O)c1cc2cc(C(F)(F)P(=O)(O)O)ccc2s1)C(=O)N1CCCCC[C@H]1C(=O)N1CCO[C@H](c2ccccc2)C1` [Compound 183, ((2-(((S)-3,3-dimethyl-1-oxo-1-((S)-2-((R)-2-phenylmorpholine-4-carbonyl)azepan-1-yl)butan-2-yl)carbamoyl)benzo[b]thiophen-5-yl)difluoromethyl)phosphonic acid], the pKi was 6.00 to 7.00 at STAT6 protein and 5.00 to 6.00 on STAT5A.

Consider `CC(C)(C)[C@H](NC(=O)c1cc2cc(C(F)(F)P(=O)(O)O)ccc2s1)C(=O)N1CCCCC[C@H]1C(=O)N1CCC[C@H](c2ccccc2)C1` [Compound 184, ((2-(((S)-3,3-dimethyl-1-oxo-1-((S)-2-((R)-3-phenylpiperidine-1-carbonyl)azepan-1-yl)butan-2-yl)carbamoyl)benzo[b]thiophen-5-yl)difluoromethyl)phosphonic acid], for which the pKi on STAT6 protein is 6.00 to 7.00; on STAT5A, 5.00 to 6.00.

Source of the values: patent US20230295200A1 (REGENTS OF THE UNIVERSITY OF MICHIGAN, priority 2022, published 2023).
